Experiments:
[1] = Food consumption of rats, sterol in diet; format: in vivo, rat (male, Sprague-Dawley)
Source text: (§1) Male rats of the Sprague-Dawley strain were purchased from Sprague-Dawley Farms (Madison, Wisconsin). The rats were maintained on a light (7:00 A.M.-5:30 P.M.)--dark (5:30 P.M.-7:00 A.M.) cycle and fed a Cholesterol Free Test Diet (United States Biochemical Corporation, Cleveland, Ohio) for a period of 13 days prior to the initiation of the experimental period. Six days prior to the initiation of the experimental period blood samples were taken for assay of serum cholesterol concentration and, based upon the results of these analyses, rats were divided into 3 groups with approximately the same mean serum cholesterol concentration. The rats were then individually housed in metabolic cages (Econo-Metabolism Units, Maryland Plastics, New York, New York) for 6 days prior to the initiation of the experimental period. The animals were maintained on the light-dark cycle throughout the experimental period.
(§2) The individual animals were weighed daily throughout the experimental period. Food consumption by the individual rats was similarly recorded daily. No significant spillage of the food or contamination of the food by feces or urine was possible due to the nature of the matabolic cage and the food receptacles utilized.
(§3) 5α-Cholest-8(14)-en-3β-ol-15-one (500 mg), prepared and purified as described in Example 1, was added in small portions to 500 g of the Cholesterol Free Test Diet in a 2 liter glass stoppered bottle. After each addition of the sterol to the diet, the bottle was rolled and shaken thoroughly. The resulting 0.1% diet with respect to the 5α-cholest-8(14)-en-3β-ol-15-one was stored at 4° C. Prior to use in feeding, the diet was allowed to warm to room temperature (~25° C.).
(§4) 2. Ketone group--7 rats with free access to the Cholesterol Free Test Diet containing 0.1% 5α-cholest-8(14)-en-3β-ol-15-one.
(§5) Another experiment following essentially the procedure of Example 43 was performed in which the 5α-cholest-8(14)-en-3β-ol-15-one was incorporated into the Cholesterol Free Test Diet at a concentration of 0.2%.

[2] = Body weight of rats, sterol in diet; format: in vivo, rat (male, Sprague-Dawley)
Source text: as §1, §2, §3, §4, §5

HMG-CoA reductase [3] = assay: Reduction of the activity of HMG-CoA reductase in L cell cultures; format: cell-based, mouse; conditions: read-out: Concentrations Required for 50% Reduction of the Activity of HMG-CoA Reductase
Experimental: (§6) The primary liver cell cultures were prepared from 16-day-old (C57BL/6J fetuses and grown in chemically defined medium (serum-free) as described in the above cited publications. The L cells, a subline of NCTC clone 929 mouse fibroblasts, were grown in chemically defined medium (serum-free) as described in the publications. These L cells are transformed fibroblasts which are regarded as malignant since they will grow as tumors if injected into the mouse strain from which they were initially obtained.
(§7) The preparation of steroid-containing media, procedures for assays of the conversion of [1-^14 C]acetate into digitonin-precipitable sterols, fatty acids, and CO2 and methods for the measurement of DNA, protein, and HMG-CoA reductase were as described in the published articles. L cell cultures were preincubated with the 15-oxygenated sterols and their derivatives for 4 hours, then [1-^14 C]acetate was added at a concentration of 4 μmoles per ml (4 μCi per ml); or the L cell cultures were incubated for 5 hours with the 15-oxygenated sterols before they were harvested for determination of microsomal HMG-CoA reductase activity.
(§8) A number of the 15-oxygenated sterols have also been tested with respect to their effects on the activity and/or levels of the enzyme HMG-CoA reductase (3-hydroxy-3-methylglutaryl coenzyme A reductase) in the L cells and in the liver cells. As noted previously, this enzyme catalyzes the reduction of 3-hydroxy-3-methylglutaryl coenzyme A to yield mevalonic acid, an essential intermediate in the biosynthesis of sterols and of a number of other essential compounds in cells.
(§9) Using the technique described by Kandutsch and Chen in the article cited in the previous example, the concentrations of various 15-oxygenated sterols required to reduce the levels of activity of HMG-CoA reductase by 50% was determined in the cells of the L cells in culture and of the primary cultures of liver cells.

HMG-CoA reductase [4] = assay: Reduction of the activity of HMG-CoA reductase in primary cultures of liver cells; format: cell-based, mouse; conditions: read-out: Concentrations Required for 50% Reduction of the Activity of HMG-CoA Reductase
Experimental: as §6, §7
Conditions for incubating the 15-oxygenated sterols or their derivatives with liver cell cultures were similar to those described for L cell cultures except that the cultures were incubated with the test compounds for 12 hours before labeled acetate was added or before they were harvested for enzyme assay.
as §8, §9

[5] = Body weight of mice, ketone in diet (Example 47); format: in vivo, mouse; conditions: 0.2% in diet; eight days; 7-week-old mice
Experimental: […] Five mice were fed the ketone at a level of 0.2% in a diet which was essentially free of animal sterols for eight days. Five control pair-fed mice were fed the same diet to which the ketone was not added. The mean plasma cholesterol concentration in the ketone group after the eight day experiment was 35.8(±3.6, standard error of mean) mg per 100 ml of plasma while the corresponding value for the pair-fed group was 114.4 (±3.4, standard error of mean). It should be noted that very closely matched pairfeeding is difficult to perform in mice of this age due to the small amounts of food which are consumed and which must be accurately determined in such experiments.

With `CC(C)CCC[C@@H](C)[C@H]1CC(=O)C2=C3CC[C@H]4C[C@@H](O)CC[C@]4(C)[C@H]3CC[C@@]21C` [5α-Cholest-8(14)-en-3β-ol-15-one, 5α-cholest-8(14)-en-3β-ol-15-one] the “food consumption relative to ad libidum group (in words)” value ([1]; 0.1% in diet) was “significantly less than that of the rats in the ad libidum group”, the Food consumption ([1]; 0.1% in diet, day 0) was 10.4 ± 0.7 g and the Food consumption ([1]; 0.1% in diet, day 1) was 5.1 ± 0.3 g. For the same molecule, the Food consumption ([1]; 0.1% in diet, day 2) was 7.1 ± 0.3 g, the Food consumption ([1]; 0.1% in diet, day 3) was 5.5 ± 0.3 g and the Food consumption ([1]; 0.1% in diet, day 4) was 7.1 ± 0.5 g. For the same molecule, the Food consumption ([1]; 0.1% in diet, day 5) was 5.8 ± 0.5 g, the Food consumption ([1]; 0.1% in diet, day 6) was 6.6 ± 0.5 g and the Food consumption ([1]; 0.1% in diet, day 7) was 7.5 ± 0.5 g. For the same molecule, the “food consumption relative to ad libidum group (in words)” value ([1]; 0.2% in diet) was “significantly less than that of the rats in the ad libidum group”, the Daily food consumption ([1]; 0.2% in diet, day 0) was 7.2 ± 0.6 g and the Daily food consumption ([1]; 0.2% in diet, day 1) was 4.4 ± 1.1 g. The Daily food consumption ([1]; 0.2% in diet, day 2) was 4.8 ± 0.4 g, the Daily food consumption ([1]; 0.2% in diet, day 3) was 4.8 ± 0.2 g and the Daily food consumption ([1]; 0.2% in diet, day 4) was 5.5 ± 0.4 g. The Daily food consumption ([1]; 0.2% in diet, day 5) was 5.5 ± 0.3 g, the Daily food consumption ([1]; 0.2% in diet, day 6) was 5.4 ± 0.2 g and the Daily food consumption ([1]; 0.2% in diet, day 7) was 5.1 ± 0.2 g. The Daily food consumption ([1]; 0.2% in diet, day 8) was 4.3 ± 0.6 g, the Body weight ([2]; 0.1% in diet, day 0) was 130.4 ± 4.4 g and the Body weight ([2]; 0.1% in diet, day 1) was 126.6 ± 4.8 g. The “Percentage change in weight from initial in individual rats” value (shortened to “Percentage change in weight from initial”) ([2]; 0.1% in diet, day 1) was -3.0 ± 0.7%, the Body weight ([2]; 0.1% in diet, day 2) was 121.4 ± 4.4 g and the “Percentage change in weight from initial” value ([2]; 0.1% in diet, day 2) was -7.0 ± 0.7%. For the same molecule, the Body weight ([2]; 0.1% in diet, day 3) was 120.6 ± 4.6 g, the “Percentage change in weight from initial” value ([2]; 0.1% in diet, day 3) was -7.7 ± 0.7% and the Body weight ([2]; 0.1% in diet, day 4) was 118.5 ± 4.0 g. The “Percentage change in weight from initial” value ([2]; 0.1% in diet, day 4) was -9.1 ± 0.7%, the Body weight ([2]; 0.1% in diet, day 5) was 119.4 ± 4.3 g and the “Percentage change in weight from initial” value ([2]; 0.1% in diet, day 5) was -8.5 ± 0.5%. For the same molecule, the Body weight ([2]; 0.1% in diet, day 6) was 118.9 ± 4.8 g, the “Percentage change in weight from initial” value ([2]; 0.1% in diet, day 6) was -8.7 ± 1.0% and the Body weight ([2]; 0.1% in diet, day 7) was 116.5 ± 4.9 g. The “Percentage change in weight from initial” value ([2]; 0.1% in diet, day 7) was -10.8 ± 1.3%, the “Percentage change in weight from initial” value ([2]; 0.1% in diet, day 8) was -10.2 ± 0.9% and the Body weight ([2]; 0.1% in diet, day 8, listed as Ketone) was 117.3 ± 4.7 g. It also gave a Body weight ([2]; 0.1% in diet, day 8, listed as ketone) of 117.3 g, a Body weight ([2]; 0.2% in diet, day 0) of 152.3 ± 5.5 g and a Body weight ([2]; 0.2% in diet, day 1) of 151.3 ± 4.7 g. It also gave a Body weight ([2]; 0.2% in diet, day 2) of 145.4 ± 4.9 g, a Body weight ([2]; 0.2% in diet, day 3) of 139.0 ± 4.8 g and a Body weight ([2]; 0.2% in diet, day 4) of 137.4 ± 4.9 g. For the same molecule, the Body weight ([2]; 0.2% in diet, day 5) was 134.5 ± 4.5 g, the Body weight ([2]; 0.2% in diet, day 6) was 130.7 ± 5.1 g and the Body weight ([2]; 0.2% in diet, day 7) was 127.7 ± 5.2 g. It also gave a Body weight ([2]; 0.2% in diet, day 8, listed as Ketone) of 122.3 ± 5.8 g, a Body weight ([2]; 0.2% in diet, day 8, listed as ketone) of 122.3 g and an IC50 (HMG-CoA reductase [3]) of 0.3 µM. For the same molecule, the IC50 (HMG-CoA reductase [4]) was 4 µM and the “average decrease in body weight (standard error of mean)” value [5] was 5.9 g.
